# Measured values reported in patent US12528774B2, “Thiosemicarbazone compounds and uses thereof” (The Regents of the University of California, priority 2019, dated 2026).
# System: MIAPACA2 cells
# Assay: Western blot of treated MIAPACA2 cells
# Format: cell-based, human
# Conditions: for phosphorylation of CHEK1 and CHEK2: HCT13 + Cu(II)
# Method: FIGS. 2A-2I. FIG. 2A: representative immunoblots of MIAPACA2 PDAC cells treated as indicated for 24h. FIGS. 2B-2C: reactive oxygen species (ROS) measurement using CM-H2DCFDA staining after HCT13 (25 nM)+Cu(II) (20 μM) treatment for 24h; mean fluorescence intensity (MFI); mean±SD, n=2, Student t-test, ***P<0.001. FIG. 2D-2E: mitochondrial ROS detection using MitoSOX staining in MIAPACA2 PDAC cells treated with HCT-13 (25 nM)+Cu(II) (20 μM) for 24h; mean±SD, n=2, Student t-test, ***P<0.001. FIG. 2F: oxygen consumption rate (OCR) of MIAPACA2 PDAC cells treated with HCT-13 (25 nM)+Cu(II) (20 μM). FIG. 2G: OCR of isolated mitochondria measured with or without HCT-13 (25 nM)+Cu(II) (20 μM). FIG. 2H: viability of 143 BTK parental (wild type, WT) and po cells after 48 h of treatment with the indicated HCT-13 concentrations+Cu(II) (20 μM) treatment, assessed with trypan blue staining; mean±SD, n=2, Student t-test, ***P<0.001. FIG. 2I: cell viability by trypan blue staining in MIAPACA2 PDAC cells to interrogate the interaction of HCT-13 (25 nM)+Cu(II) (20 μM) with 2-DG (2 mM) for 48 h; mean±SD, n=2, Student t-test, ***P<0.001.
# FIGS. 4A-4G show the chemical genomics screen identifying the replication stress response pathway as an actionable co-dependency of HCT13-treated cells. FIG. 4A: experimental design of a synthetic lethality screen using a library of protein kinase inhibitors against HCT13-treated cells in the presence of Cu(II) (20 μM). FIG. 4B: radar plot of screen results. FIG. 4C: z-score values for kinase inhibitors within the DNA damage response/replication stress response (DDR/RSR) pathway module. FIG. 4D: representative immunoblot of replication stress and cell death biomarkers in MIAPACA2 PDAC cells treated with HCT13 (10 nM)+Cu(II) (20 μM). […] (mean±SD, n=2, one-way ANOVA corrected for multiple comparisons by Bonferroni adjustment, * P<0.05; ** P<0.01; *** P<0.001; **** P<0.0001).
# (§1) Western blot: Cells were lysed using RIPA buffer supplemented with protease (ThermoFisher, 78,430) and phosphatase (ThermoFisher, 78,420) inhibitors, scraped, sonicated, and centrifuged (20,000×g at 4° C.). Protein concentrations in the supernatant were determined using the Micro BCA Protein Assay kit (Thermo), and equal amounts of protein were resolved on pre-made Bis-Tris polyacrylamide gels (Life Technologies). Primary antibodies: pAMPKT172 (Cell signaling, #2535, 1:1000), HO-1 (Cell signaling, #5061S, 1:1000), pS345 CHEK1 (Cell signaling, #2348L, 1:1000), pT68 CHEK2 (Cell signaling, #2197 S, 1:1000), pS139 H2A.X (Millipore, 05-636, 1:1000), clvd. Casp3 (Cell signaling, #9662, 1:1000), and anti-actin (Cell Signaling Technology, 9470, 1:10,000). Primary antibodies were stored in 5% BSA (Sigma-Aldrich) and 0.1% NaN3 in TBST solution. Anti-rabbit IgG HRP-linked (Cell Signaling Technology, 7074, 1:2500) and anti-mouse IgG HRP-linked (Cell Signaling Technology, 7076, 1:2500) were used as secondary antibodies. Chemiluminescent substrates (ThermoFisher Scientific, 34,077 and 34,095) and autoradiography film (Denville) were used for detection.
# as §1, with “blot.” for “blot:”, “Anti-rabbit IgG HRP-linked (Cell Signaling Technology, 7074, 1:2500) and anti-mouse IgG HRP-linked (Cell Signaling Technology, 7076, 1:2500) were used as secondary antibodies. Chemiluminescent substrates (ThermoFisher Scientific, 34,077 and 34,095) and autoradiography film (Denville) were used for detection.” left out
compound,measurement,setting,value
"CN(C)C(=S)N/N=C/c1nccc2cc(F)ccc12 (mixture of isomers) [HCT13, (E)-2-((6-Fluoroisoquinolin-1-yl)methylene)-N,N-dimethylhydrazine-1-carbothioamide and (Z)-2-((6-Fluoroisoquinolin-1-yl)methylene)-N,N-dimethylhydrazine-1-carbothioamide]",heme oxygenase-1 (HO-1) levels,24 h,increased
same,AMPK phosphorylation (T172),"Cu(II)-supplemented cells, 24 hours",induction
same,phosphorylation of CHEK1 and CHEK2,,consistently observed phosphorylation
same,phosphorylation of CHEK1 and CHEK2,listed as HCT-13,phosphorylation of CHEK1 and CHEK2 kinases was observed
same,DNA damage marker pH2AX,HCT-13 + Cu(II),induction of DNA damage marker pH2AX
same,apoptotic marker caspase 3,HCT-13 + Cu(II),cleavage of apoptotic marker caspase 3
